{"source": "ChEMBL document CHEMBL1201862", "about": "“PubChem BioAssay data set” (2004)", "test_in_all_cases": "inhibition of tumour cell growth, NCI panel, 48 h", "key": {"[1]": {"tested_on": "786-0"}, "[2]": {"tested_on": "A498"}, "[3]": {"tested_on": "A549"}, "[4]": {"tested_on": "ACHN"}, "[5]": {"tested_on": "CAKI-1"}, "[6]": {"tested_on": "COLO 205"}, "[7]": {"tested_on": "DLD-1"}, "[8]": {"tested_on": "DMS-114"}, "[9]": {"tested_on": "DMS-273"}, "[10]": {"tested_on": "EKVX"}, "[11]": {"tested_on": "HCT-116"}, "[12]": {"tested_on": "HCT-15"}, "[13]": {"tested_on": "HOP-18"}, "[14]": {"tested_on": "HOP-62"}, "[15]": {"tested_on": "HOP-92"}, "[16]": {"tested_on": "HT-29"}, "[17]": {"tested_on": "IGROV-1"}, "[18]": {"tested_on": "K562"}, "[19]": {"tested_on": "KM-20L2"}, "[20]": {"tested_on": "KM12"}, "[21]": {"tested_on": "LOX IMVI"}, "[22]": {"tested_on": "M19-MEL"}, "[23]": {"tested_on": "Malme-3M"}, "[24]": {"tested_on": "NCI-H23"}, "[25]": {"tested_on": "NCI-H460"}, "[26]": {"tested_on": "OVCAR-3"}, "[27]": {"tested_on": "OVCAR-4"}, "[28]": {"tested_on": "OVCAR-5"}, "[29]": {"tested_on": "OVCAR-8"}, "[30]": {"tested_on": "RPMI-8226"}, "[31]": {"tested_on": "RXF 393"}, "[32]": {"tested_on": "SF-268"}, "[33]": {"tested_on": "SF-295"}, "[34]": {"tested_on": "SF-539"}, "[35]": {"tested_on": "SK-MEL-28"}, "[36]": {"tested_on": "SK-MEL-2"}, "[37]": {"tested_on": "SK-MEL-5"}, "[38]": {"tested_on": "SN12C"}, "[39]": {"tested_on": "SNB-19"}, "[40]": {"tested_on": "SNB-75"}, "[41]": {"tested_on": "SNB-78"}, "[42]": {"tested_on": "SR"}, "[43]": {"tested_on": "SW-620"}, "[44]": {"tested_on": "TK-10"}, "[45]": {"tested_on": "U-251"}, "[46]": {"tested_on": "UACC-257"}, "[47]": {"tested_on": "UACC-62"}}, "note": "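Grown in 96-well plates, cells were treated for 48 hours with each compound at five concentrations. Insufficient inhibition: endpoint recorded as highest concentration tested. GI50 is the concentration that inhibits growth by half.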 The source made the active and inactive calls. No stated cut-off is given here; in the data, active = GI50 up to about 1.1 µM and inactive = higher.", "data": [{"smiles": "CC(C)c1cc(C(C)C)c(S(=O)(=O)NN)c(C(C)C)c1", "values": [{"measurement": "GI50", "setting": "[1]", "value": "> 100 µM (inactive)"}, {"measurement": "GI50", "setting": "[2]", "value": "> 100 µM (inactive)"}, {"measurement": "GI50", "setting": "[3]", "value": "> 100 µM (inactive)"}, {"measurement": "GI50", "setting": "[4]", "value": "> 100 µM (inactive)"}, {"measurement": "GI50", "setting": "[5]", "value": "> 100 µM (inactive)"}, {"measurement": "GI50", "setting": "[6]", "value": "> 100 µM (inactive)"}, {"measurement": "GI50", "setting": "[7]", "value": "> 100 µM (inactive)"}, {"measurement": "GI50", "setting": "[8]", "value": "> 100 µM (inactive)"}, {"measurement": "GI50", "setting": "[9]", "value": "> 100 µM (inactive)"}, {"measurement": "GI50", "setting": "[10]", "value": "> 100 µM (inactive)"}, {"measurement": "GI50", "setting": "[11]", "value": "> 100 µM (inactive)"}, {"measurement": "GI50", "setting": "[12]", "value": "> 100", "unit": "µM"}, {"measurement": "GI50", "setting": "[13]", "value": "> 100 µM (inactive)"}, {"measurement": "GI50", "setting": "[14]", "value": "> 100 µM (inactive)"}, {"measurement": "GI50", "setting": "[15]", "value": "> 100 µM (inactive)"}, {"measurement": "GI50", "setting": "[16]", "value": "> 100 µM (inactive)"}, {"measurement": "GI50", "setting": "[17]", "value": "> 100 µM (inactive)"}, {"measurement": "GI50", "setting": "[18]", "value": "> 100 µM (inactive)"}, {"measurement": "GI50", "setting": "[19]", "value": "> 100 µM (inactive)"}, {"measurement": "GI50", "setting": "[20]", "value": "> 100 µM (inactive)"}, {"measurement": "GI50", "setting": "[21]", "value": "42.1 µM (inactive)"}, {"measurement": "GI50", "setting": "[22]", "value": "> 100 µM (inactive)"}, {"measurement": "GI50", "setting": "[23]", "value": "> 100 µM (inactive)"}, {"measurement": "GI50", "setting": "[24]", "value": "> 100 µM (inactive)"}, {"measurement": "GI50", "setting": "[25]", "value": "> 100 µM (inactive)"}, {"measurement": "GI50", "setting": "[26]", "value": "> 100 µM (inactive)"}, {"measurement": "GI50", "setting": "[27]", "value": "> 100 µM (inactive)"}, {"measurement": "GI50", "setting": "[28]", "value": "> 100 µM (inactive)"}, {"measurement": "GI50", "setting": "[29]", "value": "> 100 µM (inactive)"}, {"measurement": "GI50", "setting": "[30]", "value": "> 100 µM (inactive)"}, {"measurement": "GI50", "setting": "[31]", "value": "> 100 µM (inactive)"}, {"measurement": "GI50", "setting": "[32]", "value": "> 100 µM (inactive)"}, {"measurement": "GI50", "setting": "[33]", "value": "> 100 µM (inactive)"}, {"measurement": "GI50", "setting": "[34]", "value": "> 100 µM (inactive)"}, {"measurement": "GI50", "setting": "[35]", "value": "> 100 µM (inactive)"}, {"measurement": "GI50", "setting": "[36]", "value": "> 100 µM (inactive)"}, {"measurement": "GI50", "setting": "[37]", "value": "> 100 µM (inactive)"}, {"measurement": "GI50", "setting": "[38]", "value": "> 100 µM (inactive)"}, {"measurement": "GI50", "setting": "[39]", "value": "> 100 µM (inactive)"}, {"measurement": "GI50", "setting": "[40]", "value": "> 100 µM (inactive)"}, {"measurement": "GI50", "setting": "[41]", "value": "> 100 µM (inactive)"}, {"measurement": "GI50", "setting": "[42]", "value": "> 100 µM (inactive)"}, {"measurement": "GI50", "setting": "[43]", "value": "> 100 µM (inactive)"}, {"measurement": "GI50", "setting": "[44]", "value": "> 100 µM (inactive)"}, {"measurement": "GI50", "setting": "[45]", "value": "> 100 µM (inactive)"}, {"measurement": "GI50", "setting": "[46]", "value": "> 100 µM (inactive)"}, {"measurement": "GI50", "setting": "[47]", "value": "> 100 µM (inactive)"}]}]}
